Experimental data as given in patent US20240344108A1, “GALACTOSE RAPID QUANTITATIVE DETECTION SYSTEM AND USE THEREOF” (Avalon HepaPOC Limited, priority 2018, published 2024).
Read-outs that look alike come from different tables or passages of the source.

Legend:
galactose dehydrogenase [1] = target: T1, galactose dehydrogenase (Pseudomonas fluorescens, UniProt P11886); test: Electrochemical response after galactose dehydrogenase immobilization and drying onto the biosensor with protectant; conditions: protectant used as stabilizer during immobilization and drying
T1 construct: purchased
T1 sequence (P11886 1-304): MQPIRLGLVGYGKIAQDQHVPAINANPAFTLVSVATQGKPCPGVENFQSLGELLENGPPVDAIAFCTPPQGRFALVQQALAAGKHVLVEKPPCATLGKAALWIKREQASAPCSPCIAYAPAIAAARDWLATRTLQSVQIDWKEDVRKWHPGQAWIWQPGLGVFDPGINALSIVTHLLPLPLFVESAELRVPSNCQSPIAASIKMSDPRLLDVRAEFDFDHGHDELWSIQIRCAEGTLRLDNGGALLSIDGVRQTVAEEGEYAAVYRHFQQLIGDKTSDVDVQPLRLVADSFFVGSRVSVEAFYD
Source text: The electrochemistry-based biosensor is designed as a test strip of electrode containing a reaction zone where galactose within the blood sample is to react with galactose metabolic enzymes, leading to the generation of an electrochemical signal. Two galactose-catalyzing enzymes, galactose dehydrogenase (GD) and galactose oxidase (GO) capable of generating electrochemical information, were selected for embedded immobilization and drying onto the electrode to enable electrochemical signal production. […] However, GO catalyzes the oxidation of primary alcohols and sugars (including d-galactose and lactose) in the presence of oxygen, thus impacting the accuracy of quantitation. Aggravatingly, excessive oxygen can compete with the electron mediator of the oxidase-based amperometric strip for electrons, thus resulting in underestimation of galactose measurement. This poses a challenge in point-of-care (POC) scenarios where fresh whole blood sample, rich in oxygen due to prolonged exposure to the atmosphere, or from critically ill patients receiving oxygen support, are utilized.
Galactose dehydrogenase, on the other hand, catalyzes d-galactose with high specificity without the involvement of oxygen. The enzyme was therefore used to be immobilized and dried onto the biosensor. […]

galactose dehydrogenase [2] = target: T1, galactose dehydrogenase; test: Stabilizer analysis: linearity test of the galactose test strip system with different stabilizers; conditions: 0.05%, 2.5% and 5.5%
Protocol: Galactochek Blood Galactose Meters, the galactose rapid detection system (galactose dehydrogenase concentration: 13.39%) with different types of stabilizers and concentrations, and YSI 2900 Automatic analyzer.
All chemicals were purchased from Sigma-Aldrich (St. Louis, MO). A stock solution of galactose at 20 mg/mL was prepared with reverse osmosis water. The standard solutions are used to prepare different galactose concentration blood sample. The final concentration of galactose in blood were 200, 450, 800, 1150 and 1500 μg/mL.
Obtain the R^2 value of the linearity test result of different strip test groups to evaluate that which type of stabilizer and concentration were suitable to be used in the system. In addition, % CV≤20% at galactose concentration range of 200-250 μg/mL, and % CV≤15% at galactose concentration range of 251-1500 μg/mL.

clinical = conditions: human, in vivo
Source text: The user needs to drink the oral galactose composition first, wherein the content of the galactose is 1%-80%, preferably 4%-40%, by weight of the total galactose composition, wherein the buffer solution can be not added or can be added to the total weight of 0.001%-5%, and the antioxidant can be not added or can be added to the total weight of 0.001%-5%. Appropriate formula can be prepared by selecting the buffer and the antioxidant, and adding the content of the following ingredients: antioxidant of 0.01M-1M selected from a group including vitamin C, sodium bisulfite, vitamin A, vitamin E, flavonoids, polyphenols, Ethylenediaminetetraacetic acid (EDTA), Diethylenetriaminepentaacetic acid (DTPA), and NTA-Nitrilotriacetate acid (NTA); and/or buffer solution of 0.01M-1M selected from a group including acetic buffer, citrate buffer, phosphate buffer, acetate buffer, carbonate buffer, ascorbic acid buffer, and triethanolamine buffer with adjustment of the pH values ranged 4.0-9.0. A stable formula can be obtained by adding 0.01% citrate buffer and 0.5% sodium bisulfite with a pH value of 4.5. […]
Before sampling biological sample, wipe the fingertips with alcohol cotton. […] In addition, the potential of this readout can be transmitted to the others including medical practitioners through Bluetooth or similar connection through a mobile phone or computer. […]

[3] = average ± standard error, literature values, cited from earlier work
[4] = Intravenous injection galactose GSP test (blood galactose after intravenous galactose); format: in vivo; conditions: human, plasma, 0.5 g/kg, average ± standard error
Protocol: The conventional detection method is used for intravenous injection of 0.5 g/kg galactose after fasting for 8 hours, and measured the galactose concentration in plasma after 60 minutes (Tang H. S. et al. (1992) Digestion, 52:222-231; Ranek L. et al. (1983) Clin. Physiol. 3:173-178). The measurement method comprises: drawing a measurement curve according to a relationship between different concentrations of standard galactose solutions and light absorption values thereof; adding HClO4 in the extracted blood and shaking for mixing, then taking supernatant by centrifugation; adding KOH into the supernatant and shaking for mixing, then taking supernatant by centrifugation again; and then adding galactose dehydrogenase into the supernatant and placing in a dark room for 60 minutes to avoid color reaction inaccuracy for preparing of a specimen and measuring the light absorption value thereof; and finally finding the concentration value by the measurement curve. However, the detection process is complicated and time-consuming, and requires using a variety of medicaments. Therefore, it takes lengthy procedure to learn the detecting result.
The oral administration galactose OGSP values of the subjects in the liver function normal group are in the range 318±27 μg/ml (average±standard error) with the minimum value 18 μg/ml and maximum value 887 μg/ml. […] The oral administration galactose OGSP values of the subjects in the liver function severely impaired group are in the range 777±48 μg/ml with the minimum value 293 μg/ml and maximum value 1499 μg/ml. […] Particularly, the oral administration galactose OGSP value is higher than the intravenous injection galactose GSP value. […] The oral administration galactose OGSP values of the subjects in the liver function severely impaired group are mainly in the range of 681-873 μg/ml (average+2*standard error). […] Therefore, further liver function tests should be taken in the subjects whose OGSP value is greater than 370 μg/ml. In additional to intravencous injection, similar results were obtained by other injection or other administration ways.

## OC[C@H]1O[C@H](O[C@H]2O[C@H](CO)[C@@H](O)[C@H](O)[C@H]2O)[C@H](O)[C@@H](O)[C@@H]1O [Trehalose, trehalose]
Galactose dehydrogenase [1]
  galactose-dependent electrochemical signal of GD-based biosensor: successfully preserved the activity of enzyme

## NCC(=O)O [Glycine, glycine]
Galactose dehydrogenase [2]
  suitability as stabilizer in the system: not suitable

## O=C[C@H](O)[C@@H](O)[C@@H](O)[C@H](O)CO [galactose]
clinical; OGSP maximum value
  concentration at 60 min: 887 µg/mL
clinical; OGSP values mainly in the range
  concentration at 60 min: 510 to 670 µg/mL
[3]; Mild or moderate impairment of liver function
  IV GSP, Digestion 1992; 52: 222-231: 423 ± 26.0 µg/mL
[3]; Normal liver function
  IV GSP, Digestion 1992; 52: 222-231: 247 ± 16.5 µg/mL
[3]; Severe impairment of liver function
  IV GSP, Digestion 1992; 52: 222-231: 630 ± 41.0 µg/mL
[4]; Mild or moderate impairment of liver function (N = 31)
  concentration at 60 min: 359 ± 10 µg/mL
[4]; Normal liver function (N = 56)
  concentration at 60 min: 174 ± 8 µg/mL
[4]; Severe impairment of liver function (N = 40)
  concentration at 60 min: 667 ± 29 µg/mL

## OC[C@H]1O[C@@](CO)(O[C@H]2O[C@H](CO)[C@@H](O)[C@H](O)[C@H]2O)[C@@H](O)[C@@H]1O [Sucrose, sucrose]
Galactose dehydrogenase [2]
  suitability as stabilizer in the system: not suitable

## OC[C@@H](O)[C@@H](O)[C@H](O)[C@H](O)CO [Mannitol, mannitol]
Galactose dehydrogenase [2]
  suitability as stabilizer in the system: not suitable
